Reference: patent US6737383B1, “Herbicidal oxadiazolidines” (priority 1999, dated 2004)

Tests used:
[1] = test system: purple nutsedge; experiment: Test B pre/postemergence purple nutsedge; type: in vivo, Cyperus rotundus
Summary of the method: (§1)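 Herbicidal effect was estimated by eye on a ten-point control scale after plants spent twelve to sixteen days in a greenhouse following soil or foliar treatment. Foliar sprays targeted plants at one to four leaves; all doses were formulated in a non-phytotoxic solvent with surfactant.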

[2] = test system: morningglory; experiment: Test B pre/postemergence morningglory; type: in vivo, Ipomoea hederacea
Summary of the method: as §1

[3] = test system: rape; experiment: Test B pre/postemergence rape; type: in vivo, Brassica napus
Summary of the method: as §1

[4] = test system: soybean; experiment: Test B pre/postemergence soybean; type: in vivo, Glycine max; details: for Plant response rating, Soybean: Postemergence
Summary of the method: as §1

[5] = test system: wheat; experiment: Test B pre/postemergence wheat; type: in vivo, Triticum aestivum; details: for Plant response rating, Wheat: Postemergence
Summary of the method: as §1

[6] = test system: crabgrass; experiment: Test B pre/postemergence crabgrass; type: in vivo, Digitaria sanguinalis
Summary of the method: as §1

[7] = test system: pigweed; experiment: Test B pre/postemergence pigweed; type: in vivo, Amaranthus retroflexus; details: for Plant response rating, Redroot pigweed: Postemergence
Summary of the method: as §1

[8] = test system: sugar beet; experiment: Test B pre/postemergence sugar beet; type: in vivo, Beta vulgaris; details: for Plant response rating, Sugarbeets: Postemergence
Summary of the method: as §1

[9] = test system: corn; experiment: Test B pre/postemergence corn; type: in vivo, Zea mays
Summary of the method: as §1

[10] = test system: surinam grass; experiment: Test B pre/postemergence surinam grass; type: in vivo, Brachiaria decumbens
Summary of the method: as §1

[11] = test system: giant foxtail; experiment: Test B pre/postemergence giant foxtail; type: in vivo, Setaria faberii
Summary of the method: as §1

[12] = test system: cocklebur; experiment: Test B pre/postemergence cocklebur; type: in vivo, Xanthium strumarium
Summary of the method: as §1

[13] = test system: wild oat; experiment: Test B pre/postemergence wild oat; type: in vivo, Avena fatua; details: for Plant response rating, Wild oats: Postemergence
Summary of the method: as §1

[14] = test system: blackgrass; experiment: Test B pre/postemergence blackgrass; type: in vivo, Alopecurus myosuroides
Summary of the method: as §1

[15] = test system: bedstraw; experiment: Test B pre/postemergence bedstraw; type: in vivo, Galium aparine; details: Preemergence
Summary of the method: as §1

[16] = test system: velvetleaf; experiment: Test B pre/postemergence velvetleaf; type: in vivo, Abutilon theophrasti; details: for Plant response rating, Velvetleaf: Postemergence
Summary of the method: as §1

[17] = Postemergence, Rate 62 g/ha, scale of 0 to 10, 0 is no effect, 10 is complete control
[18] = Postemergence, Rate 125 g/ha, scale 0 to 10, 0 is no effect, 10 is complete control
[19] = Postemergence, Rate 500 g/ha, scale of 0 to 10 where 0 is no effect and 10 is complete control
[20] = Preemergence, Rate 62 g/ha, scale 0 to 10 (0 no effect, 10 complete control)
[21] = Preemergence, Rate 125 g/ha, scale 0 to 10, 0 is no effect, 10 is complete control
[22] = Preemergence, Rate 500 g/ha, scale of 0 to 10 where 0 is no effect and 10 is complete control
[23] = Rate 250 g/ha, Postemergence, scale of 0 to 10 where 0 is no effect and 10 is complete control
[24] = Rate 500 g/ha, scale of 0 to 10 where 0 is no effect and 10 is complete control
[25] = Rate 250 g/ha, scale of 0 to 10 where 0 is no effect and 10 is complete control

`CCN(CC)C(=O)Cn1c(=O)on(C(=O)N(c2ccccc2)C(C)C)c1=O` [Compound 571] was tested, and the “Nutsedge plant response rating” value [1, 17] was 0, the “Nutsedge plant response rating” value [1, 18] was 0 and the “Plant response rating, Nutsedge” value [1, 19] was 0. For the same compound, the “Nutsedge plant response rating” value [1, 20] was 0, the “Nutsedge plant response rating” value [1, 21] was 0 and the “Nutsedge plant response rating (0 to 10 scale)” value ([1]; Preemergence, Rate 250 g/ha) was 0. For the same compound, the “Nutsedge plant response rating” value [1, 22] was 0, the “Plant response rating, Nutsedge” value [1, 23] was 0 and the “Morningglory plant response rating” value [2, 17] was 4. For the same compound, the “Morningglory plant response rating” value [2, 18] was 10, the “Plant response rating, Morningglory” value [2, 19] was 10 and the “Morningglory plant response rating” value [2, 20] was 0. For the same compound, the “Morningglory plant response rating” value [2, 21] was 0, the “Morningglory plant response rating (0 to 10 scale)” value ([2]; Preemergence, Rate 250 g/ha) was 2 and the “Morningglory plant response rating” value [2, 22] was 4. The “Plant response rating, Morningglory” value [2, 23] was 10, the “Rape plant response rating” value [3, 17] was 0 and the “Rape plant response rating” value [3, 18] was 0. The “Plant response rating, Rape” value [3, 19] was 0, the “Rape plant response rating” value [3, 20] was 0 and the “Rape plant response rating” value [3, 21] was 0. For the same compound, the “Rape plant response rating (0 to 10 scale)” value ([3]; Preemergence, Rate 250 g/ha) was 0, the “Rape plant response rating” value [3, 22] was 2 and the “Plant response rating, Rape” value [3, 23] was 0. For the same compound, the “Plant response rating, Soybean” value [4, 24] was 4, the “Soybean plant response rating” value [4, 20] was 0 and the “Soybean plant response rating” value [4, 21] was 0. For the same compound, the “Soybean plant response rating (0 to 10 scale)” value ([4]; Preemergence, Rate 250 g/ha) was 0, the “Soybean plant response rating” value [4, 22] was 3 and the “Plant response rating, Soybean” value [4, 25] was 2. The “Plant response rating, Wheat” value [5, 24] was 0, the “Wheat plant response rating” value [5, 20] was 0 and the “Wheat plant response rating” value [5, 21] was 3. The “Wheat plant response rating (0 to 10 scale)” value ([5]; Preemergence, Rate 250 g/ha) was 3, the “Wheat plant response rating” value [5, 22] was 9 and the “Plant response rating, Wheat” value [5, 25] was 0. The “Crabgrass plant response rating” value [6, 17] was 0, the “Crabgrass plant response rating” value [6, 18] was 0 and the “Plant response rating, Crabgrass” value [6, 19] was 3. The “Crabgrass plant response rating” value [6, 20] was 2, the “Crabgrass plant response rating” value [6, 21] was 2 and the “Crabgrass plant response rating (0 to 10 scale)” value ([6]; Preemergence, Rate 250 g/ha) was 3. For the same compound, the “Crabgrass plant response rating” value [6, 22] was 3, the “Plant response rating, Redroot pigweed” value [7, 24] was 0 and the “Redroot pigweed plant response rating” value [7, 20] was 0. For the same compound, the “Redroot pigweed plant response rating” value [7, 21] was 0, the “Redroot pigweed plant response rating (0 to 10 scale)” value ([7]; Preemergence, Rate 250 g/ha) was 9 and the “Redroot pigweed plant response rating” value [7, 22] was 9. The “Plant response rating, Redroot pigweed” value [7, 25] was 0, the “Plant response rating, Sugarbeets” value [8, 24] was 0 and the “Sugarbeets plant response rating” value [8, 20] was 0. The “Sugarbeets plant response rating” value [8, 21] was 0, the “Sugarbeets plant response rating (0 to 10 scale)” value ([8]; Preemergence, Rate 250 g/ha) was 0 and the “Sugarbeets plant response rating” value [8, 22] was 0. For the same compound, the “Plant response rating, Sugarbeets” value [8, 25] was 0, the “Corn plant response rating” value [9, 17] was 0 and the “Corn plant response rating” value [9, 18] was 0. The “Plant response rating, Corn” value [9, 19] was 0, the “Corn plant response rating” value [9, 20] was 0 and the “Corn plant response rating” value [9, 21] was 0. For the same compound, the “Corn plant response rating (0 to 10 scale)” value ([9]; Preemergence, Rate 250 g/ha) was 0, the “Corn plant response rating” value [9, 22] was 0 and the “Plant response rating, Corn” value [9, 23] was 0. The “B. signalgrass plant response rating” value [10, 17] was 0, the “B. signalgrass plant response rating” value [10, 18] was 0 and the “Plant response rating, B. signalgrass” value [10, 19] was 5. The “B. signalgrass plant response rating” value [10, 20] was 0, the “B. signalgrass plant response rating” value [10, 21] was 3 and the “B. signalgrass plant response rating (0 to 10 scale, 0 is no effect, 10 is complete control)” value ([10]; Preemergence, Rate 250 g/ha) was 3. For the same compound, the “B. signalgrass plant response rating” value [10, 22] was 9, the “Plant response rating, B. signalgrass” value [10, 23] was 0 and the “Giant foxtail plant response rating” value [11, 17] was 0. The “Giant foxtail plant response rating” value [11, 18] was 0, the “Plant response rating, Giant foxtail” value [11, 19] was 3 and the “Giant foxtail plant response rating” value [11, 20] was 3. The “Giant foxtail plant response rating” value [11, 21] was 3, the “Giant foxtail plant response rating (0 to 10 scale)” value ([11]; Preemergence, Rate 250 g/ha) was 9 and the “Giant foxtail plant response rating” value [11, 22] was 9. The “Plant response rating, Giant foxtail” value [11, 23] was 2, the “Cocklebur plant response rating” value [12, 17] was 0 and the “Cocklebur plant response rating” value [12, 18] was 0. For the same compound, the “Plant response rating, Cocklebur” value [12, 19] was 0, the “Cocklebur plant response rating” value [12, 20] was 0 and the “Cocklebur plant response rating” value [12, 21] was 0. The “Cocklebur plant response rating (0 to 10 scale)” value ([12]; Preemergence, Rate 250 g/ha) was 0, the “Cocklebur plant response rating” value [12, 22] was 0 and the “Plant response rating, Cocklebur” value [12, 23] was 0. For the same compound, the “Plant response rating, Wild oats” value [13, 24] was 0, the “Wild oats plant response rating” value [13, 20] was 0 and the “Wild oats plant response rating” value [13, 21] was 0. The “Wild oats plant response rating (0 to 10 scale)” value ([13]; Preemergence, Rate 250 g/ha) was 3, the “Wild oats plant response rating” value [13, 22] was 7 and the “Plant response rating, Wild oats” value [13, 25] was 0. For the same compound, the “Blackgrass plant response rating” value [14, 17] was 0, the “Blackgrass plant response rating” value [14, 18] was 0 and the “Plant response rating, Blackgrass” value [14, 19] was 0. For the same compound, the “Blackgrass plant response rating” value [14, 20] was 0, the “Blackgrass plant response rating” value [14, 21] was 2 and the “Blackgrass plant response rating (0 to 10 scale)” value ([14]; Preemergence, Rate 250 g/ha) was 3. The “Blackgrass plant response rating” value [14, 22] was 9, the “Plant response rating, Blackgrass” value [14, 23] was 0 and the “Bedstraw plant response rating” value ([15]; Rate 62 g/ha, scale 0 to 10 (0 no effect, 10 complete control)) was 0. The “Bedstraw plant response rating” value ([15]; Rate 125 g/ha, scale 0 to 10, 0 is no effect, 10 is complete control) was 0, the “Bedstraw plant response rating (0 to 10 scale)” value ([15]; Rate 250 g/ha) was 0 and the “Bedstraw plant response rating” value [15, 24] was 0. The “Plant response rating, Velvetleaf” value [16, 24] was 0, the “Velvetleaf plant response rating” value [16, 20] was 0 and the “Velvetleaf plant response rating” value [16, 21] was 0. The “Velvetleaf plant response rating (0 to 10 scale)” value ([16]; Preemergence, Rate 250 g/ha) was 0, the “Velvetleaf plant response rating” value [16, 22] was 0 and the “Plant response rating, Velvetleaf” value [16, 25] was 0.
